The results in this text go back to paper PMC4947017 (ACS chemical biology, 2016).

The target in assay [1] is T1, neurotensin receptor 1 (NTR1) (Homo sapiens, UniProt P30989). In words: […]-NT radioligand competitive displacement in NTR1-U2OS membranes. It is filed as binding.
In assay [2] the target is T1, neurotensin receptor 1 (NTR1). In words: […]-NT radioligand binding to NTR1-U2OS membranes.

T1 sequence (P30989 whole entry): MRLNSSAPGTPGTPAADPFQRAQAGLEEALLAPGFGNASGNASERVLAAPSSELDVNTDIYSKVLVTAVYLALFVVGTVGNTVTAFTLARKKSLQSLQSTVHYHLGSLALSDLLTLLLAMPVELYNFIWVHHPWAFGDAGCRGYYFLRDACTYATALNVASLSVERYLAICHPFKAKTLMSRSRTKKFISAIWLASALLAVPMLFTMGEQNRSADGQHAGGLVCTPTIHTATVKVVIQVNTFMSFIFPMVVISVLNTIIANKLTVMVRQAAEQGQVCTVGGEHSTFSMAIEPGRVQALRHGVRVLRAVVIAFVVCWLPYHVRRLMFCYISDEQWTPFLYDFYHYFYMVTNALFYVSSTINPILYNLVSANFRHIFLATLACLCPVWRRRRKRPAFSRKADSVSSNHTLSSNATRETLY

For `COc1cccc(OC)c1-c1nc(C(=O)N[C@@H](CC(C)C)C(=O)O)cn1-c1ccnc2cc(Cl)ccc12` [ML301], the IC50 in assay [1] is listed as -4.0 Log(IC50).
One may read the EC50 as the midpoint of the concentration-response curve. `COc1cc2nc(C3CC3)nc(N3CCN(c4ccccc4OC)CC3)c2cc1OC` [ML314] showed an EC50 in assay [2] of 316 nM.
